Tested on: E. coli (ATCC 25922)
Test: Biocidal activity of coated hard-substrates, ISO 22196 methodology
Type: cell-based
Details: 5% FBS and MH Broth
Description: Tables 27 to 35 summarize the biocidal activity of the coated hard-substrates as assessed using the ISO 22196 methodology. Briefly, control and chlorinated samples of the coated hard-substrates (chlorinated at 200 ppm for 10 minutes) were challenged with E. coli (ATCC 25922). Using a pipette, 200 μL of test inoculum were transferred at a concentration of 1-2×10^6 CFU/mL (in sterile DI water, 5% fetal bovine serum or 100% Mueller-Hinton broth) onto a 50 mm×50 mm plastic test surface in a sterile petri dish. The test inoculum was covered with a piece of PET (polyethylene terephthalate) film that measured 40 mm×40 mm. A slight pressure was applied to the film so that the test inoculum spread to the edges. The test inoculum was kept within the edges of the film and was capped with the lid of the petri dish. Contact times for the samples were 10, 30 and 60 minutes. Then the samples were quenched with 10 mL of sterile 0.05 M sodium thiosulfate solution to remove all oxidative chlorine in the petri dish. This quenching step was followed by repetitive washing and 1 minute of sonication. […] The plates were incubated at 37° C. for about 16 hours to about 18 hours, and viable bacterial colonies were recorded for kill kinetics analysis. The logarithm reduction was determined as follows: […]

SMILES	biocidal activity (in words)
CCCC[P+](C)(CCCC[P+](CCCCCCCCCC[N+](C)(CCCN)CCCN)(c1ccccc1)c1ccccc1)c1ccccc1.[Br-].[Br-].[Br-] (centres unmarked) [C4-P—C4-P—C10-BIS-C3-NH2]	poor biocidal activity
CC1(C)CC([N+](C)(C)CCCC[P+](CCCC[P+](CCCC[N+](C)(CCCN)CCCN)(c2ccccc2)c2ccccc2)(c2ccccc2)c2ccccc2)CC(C)(C)N1.[Br-].[Br-].[Br-].[Br-] [PIP—C4-P—C4-P—C4-BIS-C3-NH2]	had biocidal activity

From US20190364895A1, “ANTIMICROBIAL COMPOUNDS OR PRECURSORS THEREOF COMRPISING ONE OR MORE CATIONIC CENTERS AND A COATING-INCORPORATION GROUP” (Exigence Technologies Inc., priority 2016, published 2019)
